Experimental data as given in ChEMBL document CHEMBL1909294, “Translating clinical findings into knowledge in drug safety evaluation--drug induced liver injury prediction system (DILIps)” (PLoS Comput Biol, 2011).

Legend:
[1] = system: Hepatotoxicity;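 for HepSE Combined Scores: combined hepatic side effect score as listed in the training data of the Drug Induced Liver Injury Prediction System (DILIps)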;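 for HepSE cholecystitis: Cholecystitis-related hepatic side effect score drawn from the DILIps (drug-induced liver injury prediction) training data set; call rule not given here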;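 for HepSE cirrhosis: cirrhosis hepatic side effect score taken from the DILIps (drug-induced liver injury prediction) training set; call rule not given here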;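 for HepSE hepatic necrosis: score of hepatic side effects for hepatic necrosis, drawn from the training data of DILIps, a prediction system for drug-induced liver injury; call rule not given here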; for HepSE liver disease: call rule not given here;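 for HepSE liver fatty: hepatic side effect score for fatty liver, taken from the DILIps training set for predicting drug-induced liver injury; call rule not given here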;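 for HepSE liver function tests abnormal: hepatic side effect score taken from the DILIps (drug-induced liver injury prediction system) training data, here covering abnormal liver function test findings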
[2] = system: Hepatotoxicity; remark: listed apart in the source;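 for HepSE cholecystitis: Cholecystitis-related hepatic side effect score drawn from the DILIps (drug-induced liver injury prediction) training data set; call rule not given here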;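 for HepSE cirrhosis: cirrhosis hepatic side effect score taken from the DILIps (drug-induced liver injury prediction) training set; call rule not given here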;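 for HepSE hepatic necrosis: score of hepatic side effects for hepatic necrosis, drawn from the training data of DILIps, a prediction system for drug-induced liver injury; call rule not given here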; for HepSE liver disease: call rule not given here;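 for HepSE liver fatty: hepatic side effect score for fatty liver, taken from the DILIps training set for predicting drug-induced liver injury; call rule not given here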;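 for HepSE liver function tests abnormal: hepatic side effect score taken from the DILIps (drug-induced liver injury prediction system) training data, here covering abnormal liver function test findings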
[3] = system: Hepatotoxicity; remark: listed apart in the source;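 for HepSE cholecystitis: Cholecystitis-related hepatic side effect score drawn from the DILIps (drug-induced liver injury prediction) training data set; call rule not given here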;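 for HepSE cirrhosis: cirrhosis hepatic side effect score taken from the DILIps (drug-induced liver injury prediction) training set; call rule not given here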;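 for HepSE hepatic necrosis: score of hepatic side effects for hepatic necrosis, drawn from the training data of DILIps, a prediction system for drug-induced liver injury; call rule not given here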; for HepSE liver disease: call rule not given here;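 for HepSE liver fatty: hepatic side effect score for fatty liver, taken from the DILIps training set for predicting drug-induced liver injury; call rule not given here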;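 for HepSE liver function tests abnormal: hepatic side effect score taken from the DILIps (drug-induced liver injury prediction system) training data, here covering abnormal liver function test findings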
[4] = system: Hepatotoxicity; remark: listed apart in the source;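 for HepSE cholecystitis: Cholecystitis-related hepatic side effect score drawn from the DILIps (drug-induced liver injury prediction) training data set; call rule not given here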;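 for HepSE cirrhosis: cirrhosis hepatic side effect score taken from the DILIps (drug-induced liver injury prediction) training set; call rule not given here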;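 for HepSE hepatic necrosis: score of hepatic side effects for hepatic necrosis, drawn from the training data of DILIps, a prediction system for drug-induced liver injury; call rule not given here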; for HepSE liver disease: call rule not given here;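 for HepSE liver fatty: hepatic side effect score for fatty liver, taken from the DILIps training set for predicting drug-induced liver injury; call rule not given here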;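 for HepSE liver function tests abnormal: hepatic side effect score taken from the DILIps (drug-induced liver injury prediction system) training data, here covering abnormal liver function test findings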
[5] = system: Hepatotoxicity; remark: listed apart in the source; for HepSE liver disease: call rule not given here
[6] = system: Hepatotoxicity; remark: listed apart in the source; for HepSE liver disease: call rule not given here
[7] = system: Hepatotoxicity; remark: listed apart in the source
[8] = system: Hepatotoxicity; remark: listed apart in the source
[9] = system: Hepatotoxicity; remark: listed apart in the source
[10] = system: Hepatotoxicity; remark: listed apart in the source
[11] = system: Hepatotoxicity; remark: listed apart in the source
[12] = system: Hepatotoxicity; remark: listed apart in the source
[13] = system: Hepatotoxicity; remark: listed apart in the source
[14] = system: Hepatotoxicity; remark: listed apart in the source

| Structure (SMILES) | HepSE_cholecystitis [1] | HepSE_liver fatty [2] | HepSE_cholelithiasis [3] | HepSE_cirrhosis [4] | HepSE_liver function tests abnormal [5] | HepSE_liver disease [6] | HepSE_hepatic necrosis [7] | HepSE_hepatitis [8] | HepSE_Combined Scores [9] | HepSE_jaundice [10] | HepSE_bilirubinemia [11] | HepSE_hepatomegaly [12] | HepSE_elevated liver function tests [13] | HepSE_hepatic failure [14] | further results |
| --- | --- | --- | --- | --- | --- | --- | --- | --- | --- | --- | --- | --- | --- | --- | --- |
| CCCCCCCCCCC[C@@H](C[C@@H]1OC(=O)[C@H]1CCCCCC)OC(=O)[C@H](CC(C)C)NC=O [ORLISTAT] | 0 | 0 | 0 | 0 | 0 | 0 | 0 | 1 | 1 | 0 | 0 | 0 | 0 | 0 | – |
| Cc1ccccc1C(OCCN(C)C)c1ccccc1 (configuration not stated) [ORPHENADRINE] | 0 | 0 | 0 | 0 | – | 0 | 0 | 0 | 0 | 0 | 0 | 0 | – | 0 | HepSE_liver function tests abnormal ([5]; Liver): 0; HepSE_elevated liver function tests ([13]; Liver): 0 |
| CCOC(=O)C1=C[C@@H](OC(CC)CC)[C@H](NC(C)=O)[C@@H](N)C1 [OSELTAMIVIR] | 0 | 0 | 0 | 0 | 1 | 0 | 0 | 1 | 3 | 0 | 0 | 0 | 0 | 1 | – |
| Cc1onc(-c2ccccc2)c1C(=O)N[C@@H]1C(=O)N2[C@@H]1SC(C)(C)[C@@H]2C(=O)O [OXACILLIN] | 0 | 0 | 0 | 0 | 1 | 0 | 0 | 0 | 1 | 0 | 0 | 0 | 0 | 0 | – |
| C[C@]12COC(=O)C[C@@H]1CC[C@@H]1[C@@H]2CC[C@@]2(C)[C@H]1CC[C@]2(C)O [OXANDROLONE] | 0 | 0 | 0 | 0 | 0 | 0 | 1 | 0 | 2 | 1 | 0 | 0 | 0 | 0 | – |
| O=C(O)CCc1nc(-c2ccccc2)c(-c2ccccc2)o1 [OXAPROZIN] | 0 | 0 | 0 | 0 | 0 | 0 | 0 | 1 | 3 | 1 | 0 | 0 | 0 | 1 | – |
| NC(=O)N1c2ccccc2CC(=O)c2ccccc21 [OXCARBAZEPINE] | 0 | 0 | 1 | 0 | 1 | 0 | 0 | 0 | 2 | 0 | 0 | 0 | 0 | 0 | – |
| Clc1ccc(CO/N=C(\Cn2ccnc2)c2ccc(Cl)cc2Cl)c(Cl)c1 [OXICONAZOLE] | 0 | 0 | 0 | 0 | – | 0 | 0 | 0 | 0 | 0 | 0 | 0 | – | 0 | HepSE_liver function tests abnormal ([5]; Liver): 0; HepSE_elevated liver function tests ([13]; Liver): 0 |
| C[N+](C)(C)CCO.Cn1c(=O)c2[n-]cnc2n(C)c1=O [OXTRIPHYLLINE] | 0 | 0 | 0 | 0 | 0 | 0 | 0 | 0 | 0 | 0 | 0 | 0 | 0 | 0 | – |
| CCN(CC)CC#CCOC(=O)C(O)(c1ccccc1)C1CCCCC1 (configuration not stated) [OXYBUTYNIN] | 0 | 0 | 0 | 0 | 1 | 0 | 0 | 0 | 1 | 0 | 0 | 0 | 0 | 0 | – |
| COc1ccc2c3c1O[C@H]1C(=O)CC[C@@]4(O)[C@@H](C2)N(C)CC[C@]314 [OXYCODONE] | – | – | – | – | – | – | – | – | – | – | – | – | – | – | HepSE_cholecystitis ([1]; Liver): 0; HepSE_liver fatty ([2]; Liver): 0; HepSE_cholelithiasis ([3]; Liver): 0; HepSE_cirrhosis ([4]; Liver): 0; HepSE_liver function tests abnormal ([5]; Liver): 0; HepSE_liver disease ([6]; Liver): 0; HepSE_hepatic necrosis ([7]; Liver): 0; HepSE_hepatitis ([8]; Liver): 0; HepSE_Combined Scores ([9]; Liver): 1; HepSE_jaundice ([10]; Liver): 0; HepSE_bilirubinemia ([11]; Liver): 0; HepSE_hepatomegaly ([12]; Liver): 1; HepSE_elevated liver function tests ([13]; Liver): 0; HepSE_hepatic failure ([14]; Liver): 0 |
| C[C@]12C/C(=C/O)C(=O)C[C@@H]1CC[C@@H]1[C@@H]2CC[C@@]2(C)[C@H]1CC[C@]2(C)O [OXYMETHOLONE] | 0 | 0 | 0 | 0 | 0 | 0 | 1 | 0 | 2 | 1 | 0 | 0 | 0 | 0 | – |
| CN(C)[C@@H]1C(O)=C(C(N)=O)C(=O)[C@@]2(O)C(O)=C3C(=O)c4c(O)cccc4[C@@](C)(O)[C@H]3[C@H](O)[C@@H]12 [OXYTETRACYCLINE] | 0 | 0 | 0 | 0 | 0 | 0 | 0 | 0 | 0 | 0 | 0 | 0 | 0 | 0 | – |
